Values of other authors, collected in US20220184087A1, “METHODS AND COMPOSITIONS RELATING TO TREATMENT OF CANCER” (The Penn State Research Foundation, priority 2019, published 2022).
One block for each compound: values may come before it.

Tests used:
[1] = tested on: murine head and neck cancer cells
[2] = tested on: human head and neck cancer cells
MDM4 = target: T1, MDM4 (Homo sapiens, UniProt O15151); conditions: within p53-binding pocket
T1 sequence (O15151 1-490): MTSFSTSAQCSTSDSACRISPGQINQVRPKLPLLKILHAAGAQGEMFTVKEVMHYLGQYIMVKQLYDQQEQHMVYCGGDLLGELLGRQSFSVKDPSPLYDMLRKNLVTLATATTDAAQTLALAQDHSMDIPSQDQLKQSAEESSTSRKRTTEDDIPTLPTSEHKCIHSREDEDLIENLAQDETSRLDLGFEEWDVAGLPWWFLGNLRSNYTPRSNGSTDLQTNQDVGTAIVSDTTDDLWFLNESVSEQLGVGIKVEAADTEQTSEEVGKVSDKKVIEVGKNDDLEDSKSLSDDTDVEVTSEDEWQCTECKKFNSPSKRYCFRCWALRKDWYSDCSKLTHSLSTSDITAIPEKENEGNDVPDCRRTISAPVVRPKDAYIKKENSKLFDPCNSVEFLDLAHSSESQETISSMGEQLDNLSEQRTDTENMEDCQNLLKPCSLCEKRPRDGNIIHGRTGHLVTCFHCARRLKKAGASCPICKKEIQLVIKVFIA

melanoma = melanoma patients

Compound: C=CCn1c(=O)c2cnc(Nc3ccc(N4CCN(C)CC4)cc3)nc2n1-c1cccc(C(C)(C)O)n1 [MK1775, 2-allyl-1-(6-(2-hydroxypropan-2-yl)pyridin-2-yl)-6-((4-(4-methylpiperazin-1-yl)phenyl)amino)-1H-pyrazolo[3,4-d]pyrimidin-3(2H)-one]
sensitization to NK lysis [1]: sensitized
sensitization to NK lysis [2]: sensitized

binding affinity to MDM4 (MDM4): high affinity
Compound: CCOc1cc(/C=C2/C(=O)N(c3ccccc3)N=C2C)cc(Cl)c1OCC(=O)OC [SJ-172550]

Compound: ipilimumab: anti-CTLA4 immune checkpoint inhibitor antibody
median PFS (melanoma): 2.9 months

Compound: nivolumab: anti-PD-1 immune checkpoint inhibitor antibody
median PFS (melanoma): 6.9 months
